According to patent US8008290B2, “Compounds” (priority 2009, dated 2011):

Key:
[1] = target: T1, Human recombinant cathepsin K (Homo sapiens, UniProt P43235); experiment: In vitro cathepsin Ki inhibition measurement, cathepsin K; type: biochemical; details: for Ki: human cathepsin K, steady-state, competitive model, read-out: In vitro Ki (nM) vs Cath K
T1 sequence (P43235 115-329): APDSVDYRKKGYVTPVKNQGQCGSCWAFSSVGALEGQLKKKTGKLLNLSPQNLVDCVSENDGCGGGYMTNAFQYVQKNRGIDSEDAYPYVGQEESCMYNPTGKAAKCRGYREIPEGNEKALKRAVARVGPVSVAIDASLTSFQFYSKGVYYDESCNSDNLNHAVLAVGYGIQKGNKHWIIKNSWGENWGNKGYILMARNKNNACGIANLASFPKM
Experimental: Stock solutions of substrate or inhibitor were made up to 10 mM in 100% dimethylsulfoxide (DMSO) (Rathburns, Glasgow, U.K.) and diluted as appropriately required. In all cases the DMSO concentration in the assays was maintained at less than 1% (vol./vol.). The equilibrium inhibition constants (Ki^ss) for each compound were measured under steady-state conditions monitoring enzyme activity as a function of inhibitor concentration. […] B. […] The apparent inhibition constant (Ki) for each compound was determined on the basis that inhibition was reversible and occurred by a pure-competitive mechanism. […] F. Trends Biochem. […] Morrison, J. F. Biochim. Biophys. […] Curves were fitted by non-linear regression analysis (Prism) using a fixed value for the enzyme concentration.

[2] = target: T2, Human recombinant cathepsin S (Homo sapiens, UniProt P25774); experiment: In vitro cathepsin Ki inhibition measurement, cathepsin S; type: biochemical
T2 construct: purchased Merck 219343; host or cells: E. coli
T2 sequence (P25774 115-331): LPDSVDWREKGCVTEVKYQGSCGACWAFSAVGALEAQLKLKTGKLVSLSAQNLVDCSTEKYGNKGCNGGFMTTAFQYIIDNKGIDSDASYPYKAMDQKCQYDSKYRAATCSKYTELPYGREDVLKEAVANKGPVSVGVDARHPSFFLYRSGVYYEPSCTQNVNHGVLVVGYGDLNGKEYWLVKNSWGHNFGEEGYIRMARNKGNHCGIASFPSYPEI
Experimental: Stock solutions of substrate or inhibitor were made up to 10 mM in 100% dimethylsulfoxide (DMSO) (Rathburns, Glasgow, U.K.) and diluted as appropriately required. In all cases the DMSO concentration in the assays was maintained at less than 1% (vol./vol.). The equilibrium inhibition constants (Ki^ss) for each compound were measured under steady-state conditions monitoring enzyme activity as a function of inhibitor concentration. […] The apparent inhibition constant (Ki) for each compound was determined on the basis that inhibition was reversible and occurred by a pure-competitive mechanism. […] Biophys. […] Curves were fitted by non-linear regression analysis (Prism) using a fixed value for the enzyme concentration.

Compound	Ki [1]	fold improvement in in vitro potency against human cathepsin K ([1]; relative to compound 3)	fold improvement in in vitro potency against human cathepsin S ([2]; relative to compound 3)	fold improvement in in vitro potency against human cathepsin K ([1]; relative to Compound 1)	fold improvement in in vitro potency against human cathepsin S ([2]; relative to Compound 1)
O=C(N[C@H](C(=O)N1C[C@H](Cl)[C@H]2OCC(=O)[C@H]21)C1CCCCC1)c1ccccc1 [EXAMPLE 1, N—((S)-2-((3aS,6S,6aS)-6-chloro-3-oxodihydro-2H-furo[3,2-b]pyrrol-4(5H,6H,6aH)-yl)-1-cyclohexyl-2-oxoethyl)benzamide]	35 nM				
O=C(N[C@H](C(=O)N1C[C@H](F)[C@H]2OCC(=O)[C@H]21)C1CCCCC1)c1cccc(-n2cnnn2)c1 [Compound 4]	340 nM	1.7 fold	3.4 fold		
O=C(N[C@H](C(=O)N1C[C@H](Cl)[C@H]2OCC(=O)[C@H]21)C1CCCCC1)c1cccc(-n2ccnc2)c1 [EXAMPLE 3, N—((S)-2-((3aS,6S,6aS)-6-chloro-3-oxodihydro-2H-furo[3,2-b]pyrrol-4(5H,6H,6aH)-yl)-1-cyclohexyl-2-oxoethyl)-3-(1H-imidazol-1-yl)benzamide]	23 nM				
O=C(N[C@H](C(=O)N1C[C@H](Cl)[C@H]2OCC(=O)[C@H]21)C1CCCCC1)c1cccc(-n2cnnn2)c1 [EXAMPLE 2, N—((S)-2-((3aS,6S,6aS)-6-chloro-3-oxodihydro-2H-furo[3,2-b]pyrrol-4(5H,6H,6aH)-yl)-1-cyclohexyl-2-oxoethyl)-3-(1H-tetrazol-1-yl)benzamide]	27 nM	20.5 fold	47 fold		
O=C(N[C@H](C(=O)N1CC[C@H]2OCC(=O)[C@H]21)C1CCCCC1)c1cccc(-n2cnnn2)c1 [Compound 3]	560 nM				
O=C(N[C@H](C(=O)N1C[C@H](F)[C@H]2OCC(=O)[C@H]21)C1CCCCC1)c1ccccc1 [Compound 2]	95 nM			3.2 fold	3.8 fold
O=C(N[C@@H](CC1CCCCC1)C(=O)N1CC[C@H]2OCC(=O)[C@H]21)c1ccccc1 [Prior art compound 38, reference compound]	> 4000 nM				
O=C(N[C@H](C(=O)N1C[C@@H](Cl)[C@H]2OCC(=O)[C@H]21)C1CCCCC1)c1cccc(-n2ccnc2)c1 [Compound 5]	230 nM				
